Tested on: men and women with overactive bladder
Test: Phase 3 study of vibegron 75 mg vs placebo and tolterodine ER 4 mg, 12 weeks, efficacy (voiding and urine volume diary)
Type: in vivo, human
Details: for Daily Urgency Episodes: Reduction from Baseline at Week 12, LS Mean: vibegron 75 mg, tolterodine ER 4 mg; for Patients with 100% Reduction in UUI from Baseline to Week 12, Unadjusted n (%) / Patients with at Least 75% Reduction in UUI from Baseline to Week 12, Unadjusted n (%) / Patients with 100% Reduction in UUI from Baseline to Week 12, Adjusted n (%) / Patients with at Least 75% Reduction in UUI from Baseline to Week 12, Adjusted n (%): FAS-I; for Patients with 100% Reduction in UUI from Baseline to Week 12, Adjusted n (%) / Patients with at Least 75% Reduction in UUI from Baseline to Week 12, Adjusted n (%): MI for missing values; for 75% UUI responders, Active-Placebo CMH Difference / 100% UUI responders, Active-Placebo CMH Difference: stratified by sex; for Urgency, Change from Baseline LS Mean / Urgency, LS Mean Difference active - Placebo: baseline to Week 12
Procedure: Enrollment of patients included individuals with OAB Wet (those with UUI, the involuntary loss of urine accompanied by urgency) and OAB Dry (those without UUI). A total of 1,518 patients were randomized across 215 study sites into one of three groups for a 12-week treatment period.
The study consisted of a Screening Period (1 to 5 weeks), a single-blind Run-in Period (2 weeks), a randomized double-blind Treatment Period (12 weeks), and a Follow-up Period (4 weeks).
Tolterodine ER 4 mg was the active control. […] Between the Baseline and Week 12 Visits, patients had study assessments at Week 4 and Week 8.
The Patient Voiding Diary was used by participants (via the eDiary or paper Diary) to record the frequency of daily OAB symptoms including all micturitions, urgency, incontinence, and main reason for incontinence by selecting the respective box for each symptom occurring during the course of a given day and night.
Urine volume data were collected separately by patients using the Urine Volume component of the eDiary, or the paper Urine Volume Chart. The Urine Volume Chart is a tool used in clinical practice and clinical investigation to assess voiding functions over a 24-hour period and is regarded as a useful instrument in the investigation of patients with voiding symptoms. Urine volume may be collected during any one (1) of the 7 Diary Days prior to the visit, and it should be recorded for ˜24 hours starting from the time the patient gets up for the day and continues until the time the patient gets up for the day on the next day.
For the purpose of this study, the number of micturitions was defined as the number of times a patient has voided in the toilet as indicated on the Patient Voiding Diary. Average daily micturitions were calculated using the daily entries in the Patient Voiding Diary, which was completed over the 7 days prior to each study visit. Average daily number of micturitions were calculated as the total number of micturitions that occurred on a Complete Diary Day divided by the number of Complete Diary Days in the Patient Voiding Diary. A complete diary day required confirmation by the patient in the Patient Voiding Diary that all voids and leakages had been recorded for the diary day. Baseline was defined as the average number of micturitions occurring during the last evaluable diary prior to the Baseline Visit.
The number of UUI episodes was defined as the number of times a patient had checked “urge” as the reason for accidental urine leakage. Average daily UUI episodes at each study visit were calculated in the same manner as described above for the micturition endpoint. The UUI endpoint were analyzed using only OAB Wet patients.
For the analysis of the co-primary endpoints (change from baseline in average number of daily micturitions at Week 12 and change from baseline in average number of daily urge urinary incontinence episodes at Week 12, and placebo adjustment of each), a mixed model for repeated measure (MMRM) with restricted maximum likelihood estimation was used. This model corrects for dropout and accounts for the fact that measurements taken on the same patient over time tend to be correlated by using all available information on patients within the same covariate set to derive an estimate of the treatment effect for a dropout-free population. The analysis model for each efficacy endpoint includes terms for treatment, visit, OAB Type (Wet vs Dry), Sex (Female vs Male), Region (US vs Rest of World), baseline score, and interaction of visit by treatment.
Primary inferences were drawn from treatment differences for the changes from baseline derived from the MMRM models at Week 12. As part of secondary objectives, the treatment differences for each post baseline visit were also derived using the same MMRM model. […]

[1] = 50% Total Incontinence Responders, Week 2
[2] = 50% Total Incontinence Responders, Week 4
[3] = 50% Total Incontinence Responders, Week 8
[4] = 50% Total Incontinence Responders, Week 12
[5] = Cox model with sex as covariate, >1 = more treated subjects attain reduction
[6] = Dry population, baseline to Week 2

Cc1ccc(O)c([C@H](CCN(C(C)C)C(C)C)c2ccccc2)c1 [Tolterodine ER, tolterodine, reference compound]
Average Volume Voided per Micturition, Mean (SD) [1]: 167.1 (75.27) | Average daily number of urgency episodes, Mean (SD) [1]: 5.68 (3.690) | Change from Baseline in Average Daily Number of Urgency Episodes, LS Mean (SE) [1]: −2.1 (0.17) | Change from Baseline in Average Volume Voided per Micturition, LS Mean [1]: 16.9 (4.12) | Change from baseline in Percent Dry Diary Days, LS Mean [1]: 23.9 (2.33) Percent | Percent Dry Diary Days, Mean (SD) [1]: 28.44 (35.758) Percent | Average Volume Voided per Micturition, Mean (SD) [2]: 171.3 (73.88) | Average daily number of urgency episodes, Mean (SD) [2]: 5.18 (3.663) | Change from Baseline in Average Daily Number of Urgency Episodes, LS Mean (SE) [2]: −2.6 (0.18) | Change from Baseline in Average Volume Voided per Micturition, LS Mean [2]: 16.3 (4.38) | Change from baseline in Percent Dry Diary Days, LS Mean [2]: 32.6 (2.69) Percent | Percent Dry Diary Days, Mean (SD) [2]: 36.82 (40.267) Percent | Average Volume Voided per Micturition, Mean (SD) [3]: 177.7 (76.78) | Average daily number of urgency episodes, Mean (SD) [3]: 4.68 (3.707) | Change from Baseline in Average Daily Number of Urgency Episodes, LS Mean (SE) [3]: −3.1 (0.21) | Change from Baseline in Average Volume Voided per Micturition, LS Mean [3]: 24.8 (4.56) | Change from baseline in Percent Dry Diary Days, LS Mean [3]: 40.0 (2.76) Percent | Percent Dry Diary Days, Mean (SD) [3]: 44.86 (40.529) Percent | Average Volume Voided per Micturition, Mean (SD) [4]: 175.4 (77.58) | Average daily number of urgency episodes, Mean (SD) [4]: 4.02 (3.539) | Change from Baseline in Average Daily Number of Urgency Episodes, LS Mean (SE) [4]: −3.6 (0.22) | Change from Baseline in Average Volume Voided per Micturition, LS Mean [4]: 21.1 (4.74) | Change from baseline in Percent Dry Diary Days, LS Mean [4]: 49.7 (2.68) Percent | Percent Dry Diary Days, Mean (SD) [4]: 55.43 (37.734) Percent | Average Volume Voided per Micturition, Mean (SD) (75% UUI Responders, Week 2): 170.6 (77.20) | Average daily number of urgency episodes, Mean (SD) (75% UUI Responders, Week 2): 5.37 (3.577) | Change from Baseline in Average Volume Voided per Micturition, LS Mean (75% UUI Responders, Week 2): 17.5 (4.96) | Change from baseline in average daily number of urgency episodes, LS Mean (75% UUI Responders, Week 2): −2.3 (0.21) | Average Volume Voided per Micturition, Mean (SD) (75% UUI Responders, Week 4): 174.8 (73.04) | Average daily number of urgency episodes, Mean (SD) (75% UUI Responders, Week 4): 4.93 (3.675) | Change from Baseline in Average Volume Voided per Micturition, LS Mean (75% UUI Responders, Week 4): 16.2 (5.27) | Change from baseline in average daily number of urgency episodes, LS Mean (75% UUI Responders, Week 4): −2.8 (0.23) | Average Volume Voided per Micturition, Mean (SD) (75% UUI Responders, Week 8): 182.1 (77.27) | Average daily number of urgency episodes, Mean (SD) (75% UUI Responders, Week 8): 4.42 (3.677) | Change from Baseline in Average Volume Voided per Micturition, LS Mean (75% UUI Responders, Week 8): 26.1 (5.51) | Change from baseline in average daily number of urgency episodes, LS Mean (75% UUI Responders, Week 8): −3.3 (0.25) | Average Volume Voided per Micturition, Mean (SD) (75% UUI Responders, Week 12): 177.3 (77.70) | Average daily number of urgency episodes, Mean (SD) (75% UUI Responders, Week 12): 3.67 (3.542) | Change from Baseline in Average Volume Voided per Micturition, LS Mean (75% UUI Responders, Week 12): 19.1 (5.83) | Change from baseline in average daily number of urgency episodes, LS Mean (75% UUI Responders, Week 12): −3.9 (0.27) | Daily Urgency Episodes: Reduction from Baseline at Week 12, LS Mean (Age ≥65 years): −2.1 | Daily Urgency Episodes: Reduction from Baseline at Week 12, LS Mean (Age ≥75 years): −2.4 | Daily Urgency Episodes: Reduction from Baseline at Week 12, LS Mean (All patients): −2.5 | Patients with 100% Reduction in UUI from Baseline to Week 12, Unadjusted n (%) (Baseline Number of UUI <3): 62 (33.2) n (%) | Patients with at Least 75% Reduction in UUI from Baseline to Week 12, Unadjusted n (%) (Baseline Number of UUI <3): 98 (52.4) n (%) | Patients with 100% Reduction in UUI from Baseline to Week 12, Adjusted n (%) (Baseline Number of UUI <3): 54 (29.0) n (%) | Patients with at Least 75% Reduction in UUI from Baseline to Week 12, Adjusted n (%) (Baseline Number of UUI <3): 91 (48.4) n (%) | 75% UUI responders, Active-Placebo CMH Difference (Baseline Number of UUI <3): 10.1 | 100% UUI responders, Active-Placebo CMH Difference (Baseline Number of UUI <3): 1.5 | Patients with 100% Reduction in UUI from Baseline to Week 12, Unadjusted n (%) (Baseline Number of UUI ≥3): 23 (17.4) n (%) | Patients with at Least 75% Reduction in UUI from Baseline to Week 12, Unadjusted n (%) (Baseline Number of UUI ≥3): 54 (40.9) n (%) | Patients with 100% Reduction in UUI from Baseline to Week 12, Adjusted n (%) (Baseline Number of UUI ≥3): 13 (9.6) n (%) | Patients with at Least 75% Reduction in UUI from Baseline to Week 12, Adjusted n (%) (Baseline Number of UUI ≥3): 44 (33.7) n (%) | 75% UUI responders, Active-Placebo CMH Difference (Baseline Number of UUI ≥3): 8.4 | 100% UUI responders, Active-Placebo CMH Difference (Baseline Number of UUI ≥3): 2.6 | Hazard Ratio, 50% reduction in urgency episodes, Compared to Placebo Using Proportional Hazards [5]: 1.225 | Hazard Ratio, 100% reduction in UUI episodes, Compared to Placebo Using Proportional Hazards [5]: 1.141 | Urgency, Change from Baseline LS Mean (Dry population, Age <65): −2.3 (57) | Urgency, LS Mean Difference active - Placebo (Dry population, Age <65): −0.8 | Urgency, Change from Baseline LS Mean (Dry population, Age ≥65): −1.5 (35) | Urgency, LS Mean Difference active - Placebo (Dry population, Age ≥65): 0.2 | Average daily number of urgency episodes, Mean (SD) (Dry population, Week 2): 6.87 (4.260) | Change from baseline in average daily number of urgency episodes, LS Mean (Dry population, Week 2): −1.4 (0.27) | Urgency episodes, Active - Placebo LS Mean Difference (Dry population, Week 2): −0.6 (0.37) | Average daily number of urgency episodes, Mean (SD) (Dry population, Week 4): 7.03 (4.865) | Change from baseline in average daily number of urgency episodes, LS Mean (Dry population, Week 4): −1.6 (0.29) | Urgency episodes, Active - Placebo LS Mean Difference (Dry population, Week 4): −0.7 (0.40) | Average daily number of urgency episodes, Mean (SD) (Dry population, Week 8): 6.25 (4.957) | Change from baseline in average daily number of urgency episodes, LS Mean (Dry population, Week 8): −2.2 (0.34) | Urgency episodes, Active - Placebo LS Mean Difference (Dry population, Week 8): −1.0 (0.46) | Average daily number of urgency episodes, Mean (SD) (Dry population, Week 12): 6.56 (5.480) | Change from baseline in average daily number of urgency episodes, LS Mean (Dry population, Week 12): −2.0 (0.36) | Urgency episodes, Active - Placebo LS Mean Difference (Dry population, Week 12): −0.4 (0.49) | Patients with at Least 50% Reduction in Urgency Episodes, Adjusted (%) [6]: 16.3% | Patients with at Least 50% Reduction in Urgency Episodes, Adjusted n [6]: 16 | Patients with at Least 50% Reduction in Urgency Episodes, Unadjusted (%) [6]: 16.3% | Patients with at Least 50% Reduction in Urgency Episodes, Unadjusted n [6]: 16

— US20230027066A1 (Urovant Sciences GmbH, priority 2019, published 2023)
